Experimental data taken from patent US8940863B2, “Selective anticancer chimeric peptides which bind neuropilin receptor” (Stella Pharma Corporation, priority 2008, dated 2015).
Entries after “also recorded” stand apart in the source; their conditions may differ. Where two headings read alike, the source gives them in different places. Non-standard residues stand in square brackets, D forms with d. Residues, ends and D or L forms follow the SMILES beside them. No end group written: not given here.

Tests used:
[1] = tested on: H322 lung cancer cells; test: Membrane permeabilization (calcein, confocal); assay type: cell-based, human; settings: 10 μM; for percentage of influx of medium to the cells over time (words): compared with EB-Lytic peptide
Experimental: Calcein, a soluble fluorescence molecule, was added to H322 lung cancer cells in a glass-bottomed dish at a final concentration of 2 μM. […] At 0 minute, two minutes, five minutes, 10 minutes and 20 minutes after addition of peptide, using Olympus FV1000 confocal laser scanning microscope (Olympus), confocal images were taken.

[2] = tested on: BT-20; test: Annexin V assay and caspase assay; assay type: cell-based, human; settings: 5 μM, two hours
Experimental: BT-20 cells were treated for 2 hours at 37° C. with or without EB-lytic chimeric peptide at 5 μM. For determination of caspase activation or Annexin V-positive expression, peptide-treated cultures were simultaneously analyzed for caspase activity and propidium iodide (PI) staining using a carboxyfluorescein FLICA caspase-3&7 assay (Immunochemistry Technologies, Bloomington, Minn.), or, alternatively, for Annexin V labeling and PI staining by multiparametric flow cytometry. Furthermore, in accordance with the manufacturer's instructions, using a confocal laser scanning microscope, terminal deoxynucleotidyl transferase-dUTP nick end labeling (TUNEL) assay was conducted by MEBSTAIN Apoptosis Kit Direct (MBL).
In accordance with the method of Example 1, Annexin V assay and caspase assay were performed. […] For determination of caspase activation or Annexin V-positive expression, peptide-treated cultures were simultaneously analyzed for caspase activity and propidium iodide (PI) staining using a carboxyfluorescein FLICA caspase-3&7 assay (Immunochemistry Technologies, Bloomington, Minn.), or, alternatively, for Annexin V labeling and PI staining by multiparametric flow cytometry. The results are shown in FIG. 20A (Annexin V) and FIG. 20B (caspase activity)

[3] = tested on: human breast cancer cell line MDA-MB-231; test: Antitumor effect in MDA-MB-231 bearing mouse models; assay type: in vivo, athymic nude mice; settings: 1 mg/kg intravenously injected; from day 5
[4] = tested on: H322
[5] = tested on: BT-20
[6] = tested on: U251
[7] = tested on: BxPC-3
[8] = tested on: SU.86.86
[9] = tested on: LNCaP
[10] = tested on: HEK293; settings: HEK293 normal cells; 72 hours; mean (Table 2)
[11] = tested on: MRC-5; test: Cell viability assay (WST-8); settings: MRC-5 normal cells; 72 hours; mean (Table 2)
[12] = tested on: PE cell (pancreatic epidermal); test: Cell viability assay (WST-8); assay type: cell-based
From the text: (§1) Correlation between IC50 values was observed.

[13] = tested on: T47D; test: Cell viability assay (WST-8); assay type: cell-based, human; settings: 48 h
From the text: as §1

[14] = tested on: HEK293T; assay type: cell-based
[15] = tested on: MDA-MB-231
[16] = tested on: SK-BR-3; settings: 48 h
[17] = tested on: CFPAC-1; settings: 48 h
[18] = tested on: Panc-1; settings: 48 h
[19] = tested on: HuCCT-1; settings: 48 h
[20] = tested on: human recombinant IL13R protein; test: BIACORE binding to IL13R
[21] = tested on: HN-12; test: Cell viability assay (WST-8); assay type: cell-based, human; settings: 72 hours
[22] = tested on: U251; test: Short-exposure killing of cancer cells (WST-8); assay type: cell-based, human; settings: 10 μM
[23] = target: T1, human recombinant IL4R protein (Homo sapiens, UniProt P24394); test: BIACORE binding to IL4R
T1 sequence (P24394 26-825): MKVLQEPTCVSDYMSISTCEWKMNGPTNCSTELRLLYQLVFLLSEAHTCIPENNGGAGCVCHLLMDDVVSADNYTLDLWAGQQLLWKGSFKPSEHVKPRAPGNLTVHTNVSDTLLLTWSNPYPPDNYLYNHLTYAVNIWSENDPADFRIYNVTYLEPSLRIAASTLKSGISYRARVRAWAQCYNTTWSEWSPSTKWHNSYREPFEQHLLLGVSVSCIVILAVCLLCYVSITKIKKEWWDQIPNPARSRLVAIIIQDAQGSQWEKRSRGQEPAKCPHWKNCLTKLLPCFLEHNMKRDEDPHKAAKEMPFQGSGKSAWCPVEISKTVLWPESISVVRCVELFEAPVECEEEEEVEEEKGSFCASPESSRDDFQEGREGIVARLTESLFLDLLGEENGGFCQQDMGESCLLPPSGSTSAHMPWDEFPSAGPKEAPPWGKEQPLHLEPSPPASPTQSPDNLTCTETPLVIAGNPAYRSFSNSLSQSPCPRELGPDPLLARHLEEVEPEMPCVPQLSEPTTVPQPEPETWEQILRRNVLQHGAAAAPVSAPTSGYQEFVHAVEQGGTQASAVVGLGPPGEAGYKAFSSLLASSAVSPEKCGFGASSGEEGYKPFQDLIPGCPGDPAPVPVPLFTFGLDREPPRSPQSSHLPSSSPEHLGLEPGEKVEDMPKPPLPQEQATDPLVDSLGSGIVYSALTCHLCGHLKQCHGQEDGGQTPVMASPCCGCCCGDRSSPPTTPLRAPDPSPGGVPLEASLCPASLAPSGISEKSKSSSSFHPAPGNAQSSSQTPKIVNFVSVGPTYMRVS

[24] = tested on: A172; test: Cell viability assay (WST-8); assay type: cell-based; settings: 72 h
[25] = tested on: KCCT873; test: Cell viability assay (WST-8); assay type: cell-based; settings: 72 h
[26] = tested on: BxPC-3; test: Short-exposure killing of cancer cells (WST-8); assay type: cell-based, human; settings: 10 μM
[27] = tested on: WI-38; settings: 72 h
[28] = target: human recombinant NRP1 protein (Homo sapiens, UniProt O14786); test: BIACORE binding to NRP1
Chain of human recombinant NRP1 protein (O14786 22-923): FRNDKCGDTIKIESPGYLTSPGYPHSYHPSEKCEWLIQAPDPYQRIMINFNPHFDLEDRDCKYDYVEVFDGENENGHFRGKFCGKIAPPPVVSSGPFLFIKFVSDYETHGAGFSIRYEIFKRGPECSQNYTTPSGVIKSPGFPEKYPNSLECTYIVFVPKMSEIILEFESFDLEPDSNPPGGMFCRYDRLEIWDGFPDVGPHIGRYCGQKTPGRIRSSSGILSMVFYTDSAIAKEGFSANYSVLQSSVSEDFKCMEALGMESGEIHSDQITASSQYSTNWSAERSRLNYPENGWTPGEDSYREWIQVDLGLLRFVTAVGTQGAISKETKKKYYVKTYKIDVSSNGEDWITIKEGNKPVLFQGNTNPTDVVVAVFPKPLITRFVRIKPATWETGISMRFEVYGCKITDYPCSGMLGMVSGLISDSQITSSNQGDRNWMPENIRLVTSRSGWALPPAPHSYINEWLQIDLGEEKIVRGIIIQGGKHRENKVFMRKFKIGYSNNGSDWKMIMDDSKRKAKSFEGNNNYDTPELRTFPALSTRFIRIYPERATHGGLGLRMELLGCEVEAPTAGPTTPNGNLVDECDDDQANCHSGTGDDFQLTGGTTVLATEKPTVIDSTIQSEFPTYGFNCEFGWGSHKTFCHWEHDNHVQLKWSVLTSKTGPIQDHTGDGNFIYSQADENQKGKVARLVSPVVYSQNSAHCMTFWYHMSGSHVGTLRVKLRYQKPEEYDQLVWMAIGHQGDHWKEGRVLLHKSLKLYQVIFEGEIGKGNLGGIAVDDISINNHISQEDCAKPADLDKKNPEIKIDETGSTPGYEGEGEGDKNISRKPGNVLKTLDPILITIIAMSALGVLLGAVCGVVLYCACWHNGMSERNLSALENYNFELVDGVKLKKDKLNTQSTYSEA
Experimental: Based on the results of binding three-dimensional structure analysis of NRP1 and a Sema3A, a ligand thereof, partial peptide sequence which is important for binding (NYQWVPYQGRVPYPR (SEQ ID NO: 29)) was designed and chemically synthesized. By BIACORE analysis, binding affinity with human recombinant NRP1 protein was assessed.

[29] = target: EGFR (Homo sapiens, UniProt P00533); settings: Li Z et al., FASEB J 2005; read-out: dissociation constant to EGFR; cited from earlier work
[30] = tested on: DU145; test: Cell viability assay (WST-8); assay type: cell-based, human; settings: 72 hours
[31] = listed as EB (H2R)-Lytic peptide

Compound: CC[C@H](C)[C@H](NC(=O)[C@@H](NC(=O)[C@H](CC(N)=O)NC(=O)[C@H](CCC(N)=O)NC(=O)[C@@H]1CCCN1C(=O)[C@@H](NC(=O)[C@H](Cc1ccc(O)cc1)NC(=O)CNC(=O)[C@H](Cc1ccc(O)cc1)NC(=O)[C@H](Cc1c[nH]c2ccccc12)NC(=O)[C@H](CCCNC(=N)N)NC(=O)[C@@H](N)Cc1ccc(O)cc1)[C@@H](C)O)C(C)C)C(=O)NCC(=O)NCC(=O)NCC(=O)N[C@@H](CCCCN)C(=O)N[C@@H](CC(C)C)C(=O)N[C@H](CC(C)C)C(=O)N[C@@H](CC(C)C)C(=O)N[C@@H](CCCCN)C(=O)N[C@H](CC(C)C)C(=O)N[C@@H](CC(C)C)C(=O)N[C@H](CCCCN)C(=O)N[C@H](CCCCN)C(=O)N[C@@H](CC(C)C)C(=O)N[C@@H](CC(C)C)C(=O)N[C@@H](CCCCN)C(=O)N[C@H](CC(C)C)C(=O)N[C@@H](CC(C)C)C(=O)N[C@@H](CCCCN)C(=O)N[C@@H](CCCCN)C(=O)N[C@@H](CCCCN)C(=O)O [EB(H2R)-lytic peptide] (H-YRWYGYTPQNVIGGGKL[dL]LK[dL]L[dK][dK]LLK[dL]LKKK-OH; N-terminus and C-terminus assumed)
- number of cells with the membrane disintegrated (green) over time ([1]; 0 to 20 minutes): increases in shorter time
- percentage of influx of medium to the cells over time (words) [1, 31]: more rapid
- percentage of influx of medium to the cells over time (words) ([1]; listed as EB(H2R)-Lytic peptide): more efficient
- Annexin V-positive expression (words) [2, 31]: induces Annexin V-positive expression more strongly
- caspase 3,7 activation (words) [2, 31]: induces caspase 3 & 7 activity more strongly
- Annexin V-positive expression (words) ([2]; listed as EB(H2R)-lytic): induced Annexin V-positive expression more strongly
- caspase 3,7 activation (words) ([2]; listed as EB(H2R)-lytic): induced caspase 3,7 activation more strongly
- antitumor effect [3]: in vivo antitumor effect higher; also recorded: higher antitumor effect in vivo; also recorded: sufficient antitumor effect
- IC50 Ratio EB-lytic peptide/EB(H2R)-lytic peptide ([4]; H322): 2.1
- cell-killing effect compared with wild-type EGFR-binding chimeric peptide ([4]; H322, 72 hours): enhanced more
- IC50 ([4]; H322 cancer cells, 72 hours, mean (Table 2)): 3.2 µM
- IC50 Ratio EB-lytic peptide/EB(H2R)-lytic peptide ([5]; BT-20): 3.4
- IC50 ([5]; BT-20 cancer cells, 72 hours, mean (Table 2)): 1.9 µM
- IC50 Ratio EB-lytic peptide/EB(H2R)-lytic peptide ([6]; U251): 1.4
- IC50 ([6]; U251 cancer cells, 72 hours, mean (Table 2)): 8.4 µM
- IC50 Ratio EB-lytic peptide/EB(H2R)-lytic peptide ([7]; BxPC-3): 1.8
- IC50 ([7]; BxPC-3 cancer cells, 72 hours, mean (Table 2)): 6.6 µM
- IC50 Ratio EB-lytic peptide/EB(H2R)-lytic peptide ([8]; SU.86.86): 1.6
- IC50 ([8]; SU.86.86 cancer cells, 72 hours, mean (Table 2)): 7.4 µM
- IC50 Ratio EB-lytic peptide/EB(H2R)-lytic peptide ([9]; LNCaP): 2.1
- IC50 ([9]; LNCaP cancer cells, 72 hours, mean (Table 2)): 4.8 µM
- IC50 [10]: > 20 µM
- IC50 [11]: > 20 µM

Compound: CC(C)C[C@H](NC(=O)[C@H](CCCCN)NC(=O)[C@@H](CC(C)C)NC(=O)[C@H](CC(C)C)NC(=O)[C@H](CCCCN)NC(=O)[C@H](CCCCN)NC(=O)[C@H](CC(C)C)NC(=O)[C@@H](CC(C)C)NC(=O)[C@@H](CCCCN)NC(=O)[C@H](CCCCN)NC(=O)[C@H](CC(C)C)NC(=O)[C@H](CC(C)C)NC(=O)[C@@H](CCCCN)NC(=O)[C@H](CC(C)C)NC(=O)[C@H](CC(C)C)NC(=O)CNC(=O)CNC(=O)[C@H](CCCNC(=N)N)NC(=O)[C@@H]1CCCN1C(=O)[C@H](Cc1ccc(O)cc1)NC(=O)[C@@H]1CCCN1C(=O)[C@@H](NC(=O)[C@H](CCCNC(=N)N)NC(=O)CN)C(C)C)C(=O)O [Sema3A(aa371-377)-nLytic] (H-GRVPYPRGGLL[dK]LLK[dK][dL]LKKL[dL]KL-OH; N-terminus and C-terminus assumed)
- IC50 ([12]; 48 h): > 50 µM
- IC50 [13]: 3.7 µM
- IC50 ([14]; 48 h): > 20 µM
- IC50 ([5]; 48 h): 11.4 µM
- IC50 ([7]; 48 h): 14.7 µM
- IC50 ([8]; 48 h): 8 µM
- IC50 ([15]; 48 h): 8.1 µM
- IC50 [16]: 14.5 µM
- IC50 [17]: 9.2 µM
- IC50 [18]: 14.1 µM
- IC50 [19]: 7.9 µM

Compound: KDLLLHLKKLFREGQFN (IL13R binding peptide) [IL13R-binding peptide]
- binding affinity (BIACORE, words) [20]: binding affinity with human recombinant IL13R protein was observed

Compound: KDLLLHLKKLFREGQFNGGGKLLLKLLKKLLKLLKKK (IL13-lyticL chimeric peptide)
- cell-killing effect compared with LyticL alone [21]: cell-killing effect was enhanced
- contact time that sufficiently induces cell death [22]: 10 min
- cell-killing effect compared with LyticL alone ([6]; U251, 72 hours): cell-killing effect was enhanced

Compound: KQLIRFLKRLDRN (IL4R binding peptide) [IL4R-binding peptide]
- binding affinity (BIACORE, words) [23]: binding affinity with human recombinant IL4R protein was observed

Compound: KQLIRFLKRLDRNGGGKLLLKLLKKLLKLLKKK [IL4-LyticL]
- IC50 ([12]; PE normal cells, 72 hours, Mean ± SD (Table 4), read-out: IC50): > 20 µM
- IC50 ([14]; 72 h): 7.2 ± 0.7 µM
- IC50 [24]: 3.8 ± 1.1 µM
- IC50 [25]: 4.6 ± 0.1 µM
- contact time that sufficiently induces cell death [26]: 10 min
- IC50 ([6]; 72 h): 3.7 ± 0.1 µM
- IC50 ([7]; 72 h): 3.2 ± 0.4 µM
- cell-killing effect compared with LyticL alone ([7]; BxPC-3, 72 hours): cell-killing effect was enhanced
- IC50 [27]: 9.8 ± 0.8 µM
- IC50 ([15]; 72 h): 5.6 ± 0.5 µM
- cell-killing effect compared with LyticL alone ([15]; MDA-MB-231, 72 hours): cell-killing effect was enhanced

Compound: NYQWVPYQGRVPYPR (NRP1 binding peptide) [NRP1-binding peptide]
- binding affinity (BIACORE, words) [28]: binding affinity with human recombinant NRP1 protein was observed

Compound: YHWYGYTPQNVI [EB peptide]
- Kd [29]: 22 nM

Compound: YHWYGYTPQNVIGGGGGRLLRRLLRRLLRK (EGFbuf sequence)
- cell-killing effect compared with buf alone [30]: cell-killing effect was enhanced
- cell-killing effect to H322 compared with lung normal cell line MRC-5 ([4]; 0 to 20 μM, 72 hours): cell-killing sensitiveness to cancer cells was high
- cell-killing effect of chimeric peptide compared with lytic moiety alone ([4]; H322, 72 hours): cell-killing effect was enhanced
